The values below come from patent US20210186879A1, “TARGETED DELIVERY OF HYDROPHILIC DRUGS TO LUNG” (DOUBLE BOND PHARMACEUTICALS AB, priority 2016, published 2021).

Data set [1] is described as follows: Solubility in aqueous ethanol (UV method). The data set is classed as physicochemical. Particulars: for Solubility in 20% ethanol: doxycycline salts, Table 9, in mg/mL. On the procedure:
The mixture was centrifuged at 3000 rpm for 10 min and the supernatant filtered through a 0.2 micrometer filter to remove aggregates of undissolved solid product. The solubility of the compound was determined by a UV method. Particle size analysis was accomplished by laser diffraction method.

Data set [2] in a line: In vivo distribution of doxycycline in lung and blood serum of Wistar rats. Particulars: 30 min; for Blood serum Difference / Lung tissue Difference: relative to control CI-DOX (1); for Blood serum DOX / Lung tissue DOX: doxycycline, 3 mg/kg i.v. single bolus, ± SD. On the procedure: Five or six pieces of lung tissue of a total weight of about 1 g were taken from different parts of a lung. The samples were homogenized with a solution of aqueous ethanol containing HCl for 20 s at 7000 rpm and for 10 s at 11000 rpm. […] Doxorubicin and doxycycline (DOC) concentration in the final supernatant was determined with fluorometric analysis and high-performance liquid chromatography respectively.

Where [3] appears, read: irinotecan alkane sulfonates, 30% ethanol (v/v) per table title.
The mark [4] stands for this setting: mitoxantrone alkyl sulfates and alkane sulfonates, 30% ethanol (v/v).
The mark [5] stands for this setting: doxorubicin alkyl sulfates and alkane sulfonates, 30% ethanol (v/v).
Setting [6] is: doxycycline alkane sulfonates and alkyl sulfates, 20% aqueous ethanol.

Turning to `CCCCCCCCCCS(=O)(=O)O.CCc1c2c(nc3ccc(OC(=O)N4CCC(N5CCCCC5)CC4)cc13)-c1cc3c(c(=O)n1C2)COC(=O)C3(O)CC` (centres unmarked) [irinotecan alkane sulfonate n=10], the Solubility in data set [1] (setting [3]) was 834.8 µg/mL.

In data set [1] (setting [4]), `CCCCCCCCCCCCCCOS(=O)(=O)O.CCCCCCCCCCCCCCOS(=O)(=O)O.O=C1c2c(O)ccc(O)c2C(=O)c2c(NCCNCCO)ccc(NCCNCCO)c21` [mitoxantrone CnH2n+1OSO3^− n=14] gave a Solubility of 7.2 µg/mL.

For `CCCCCCCCCCCCCCS(=O)(=O)O.COc1cccc2c1C(=O)c1c(O)c3c(c(O)c1C2=O)CC(O)(C(=O)CO)CC3OC1CC(N)C(O)C(C)O1` (centres unmarked) [doxorubicin CnH2n+1SO3^− n=14], in data set [1] (setting [5]), the Solubility turned out to be 45.96 µg/mL.

In data set [1] (setting [6]), `CC1c2cccc(O)c2C(O)=C2C(=O)C3(O)C(O)=C(C(N)=O)C(=O)C(N(C)C)C3C(O)C21.CCCCCCCCCCCCCCCCOS(=O)(=O)O` (centres unmarked) [doxycycline CnH2n+1OSO3^− n=16] showed a Solubility of 31.99 µg/mL.

Take `CC1c2cccc(O)c2C(O)=C2C(=O)C3(O)C(O)=C(C(N)=O)C(=O)C(N(C)C)C3C(O)C21.CCCCCCCCCCCCCCOS(=O)(=O)O` (centres unmarked) [doxycycline CnH2n+1OSO3^− n=14]: the Solubility in data set [1] (setting [6]) worked out at 117.8 µg/mL. Also, the “Solubility in 20% ethanol” value in data set [1] is 0.1178. In addition, in data set [2], the “Blood serum Difference” value is on record as 0.39, the “Lung tissue Difference” value was 9.20, the “Blood serum DOX” value was 45 ± 1 ng/mL and the “Lung tissue DOX” value worked out at 1582 ± 101 ng/mL.

In data set [1] (setting [4]), `CCCCCCCCS(=O)(=O)O.CCCCCCCCS(=O)(=O)O.O=C1c2c(O)ccc(O)c2C(=O)c2c(NCCNCCO)ccc(NCCNCCO)c21` [mitoxantrone CnH2n+1SO3^− n=8] gave a Solubility of 1348 µg/mL.

`CCCCCCCCCCCCS(=O)(=O)O.CCCCCCCCCCCCS(=O)(=O)O.O=C1c2c(O)ccc(O)c2C(=O)c2c(NCCNCCO)ccc(NCCNCCO)c21` [mitoxantrone CnH2n+1SO3^− n=12] yielded a Solubility in data set [1] (setting [4]) of 683.1 µg/mL.

`CC1c2cccc(O)c2C(O)=C2C(=O)C3(O)C(O)=C(C(N)=O)C(=O)C(N(C)C)C3C(O)C21.CCCCCCCCCCOS(=O)(=O)O` (centres unmarked) [doxycycline CnH2n+1OSO3^− n=10] gave a Solubility in data set [1] (setting [6]) of 3777 µg/mL.

In data set [1] (setting [6]), `CC1c2cccc(O)c2C(O)=C2C(=O)C3(O)C(O)=C(C(N)=O)C(=O)C(N(C)C)C3C(O)C21.CCCCCCCCCCCCCCCCS(=O)(=O)O` (centres unmarked) [doxycycline CnH2n+1SO3^− n=16] came in with a Solubility of 10.34 µg/mL. Moreover, the “Solubility in 20% ethanol” value in data set [1] is 0.0103. Besides, in data set [2], the “Blood serum Difference” value was 0.22, the “Lung tissue Difference” value is 11.74, the “Blood serum DOX” value worked out at 25 ± 2 ng/mL and the “Lung tissue DOX” value was 2020 ± 117 ng/mL.

In the case of `CC1c2cccc(O)c2C(O)=C2C(=O)C3(O)C(O)=C(C(N)=O)C(=O)C(N(C)C)C3C(O)C21.CCCCCCCCCCCCOS(=O)(=O)O` (centres unmarked) [doxycycline CnH2n+1OSO3^− n=12], in data set [2], the “Blood serum Difference” value came out at 1.10, the “Lung tissue Difference” value amounted to 3.20, the “Blood serum DOX” value came to 127 ± 22 ng/mL and the “Lung tissue DOX” value was determined as 551 ± 185 ng/mL.

As to `CC1c2cccc(O)c2C(O)=C2C(=O)C3(O)C(O)=C(C(N)=O)C(=O)C(N(C)C)C3C(O)C21.CCCCCCCCCCCCS(=O)(=O)O` (centres unmarked) [doxycycline CnH2n+1SO3^− n=12], the Solubility in data set [1] (setting [6]) turned out to be 320.3 µg/mL. Further, the “Solubility in 20% ethanol” value in data set [1] came to 0.3203. In data set [2], the “Blood serum Difference” value was found to be 0.53, the “Lung tissue Difference” value is given as 5.48, the “Blood serum DOX” value was 61 ± 7 ng/mL and the “Lung tissue DOX” value is 943 ± 600 ng/mL.

Turning to `CC1c2cccc(O)c2C(O)=C2C(=O)C3(O)C(O)=C(C(N)=O)C(=O)C(N(C)C)C3C(O)C21.CCCCCCCCCCCCCCS(=O)(=O)O` (centres unmarked) [doxycycline CnH2n+1SO3^− n=14], the Solubility in data set [1] (setting [6]) came out at 55.1 µg/mL.

As to `CCCCCCCCCCCCCCCCCCOS(=O)(=O)O.COc1cccc2c1C(=O)c1c(O)c3c(c(O)c1C2=O)CC(O)(C(=O)CO)CC3OC1CC(N)C(O)C(C)O1` (centres unmarked) [doxorubicin CnH2n+1OSO3^− n=18], in data set [1] (setting [5]), the Solubility is 2.6 µg/mL.

Turning to `CCCCCCCCOS(=O)(=O)O.CCCCCCCCOS(=O)(=O)O.O=C1c2c(O)ccc(O)c2C(=O)c2c(NCCNCCO)ccc(NCCNCCO)c21` [mitoxantrone CnH2n+1OSO3^− n=8], in data set [1] (setting [4]), the Solubility was determined as 780.6 µg/mL.

Regarding `CCCCCCCCCCOS(=O)(=O)O.COc1cccc2c1C(=O)c1c(O)c3c(c(O)c1C2=O)CC(O)(C(=O)CO)CC3OC1CC(N)C(O)C(C)O1` (centres unmarked) [doxorubicin CnH2n+1OSO3^− n=10], the Solubility in data set [1] (setting [5]) was 507.7 µg/mL.

Compound `CCCCCCCCCCS(=O)(=O)O.COc1cccc2c1C(=O)c1c(O)c3c(c(O)c1C2=O)CC(O)(C(=O)CO)CC3OC1CC(N)C(O)C(C)O1` (centres unmarked) [doxorubicin CnH2n+1SO3^− n=10] came in with a Solubility in data set [1] (setting [5]) of 1064 µg/mL.

Compound `CC1c2cccc(O)c2C(O)=C2C(=O)C3(O)C(O)=C(C(N)=O)C(=O)C(N(C)C)C3C(O)C21.CCCCCCCCCCS(=O)(=O)O` (centres unmarked) [doxycycline CnH2n+1SO3^− n=10] had a Solubility in data set [1] (setting [6]) of 3165 µg/mL.

Compound `CCCCCCCCCCCCS(=O)(=O)O.CCc1c2c(nc3ccc(OC(=O)N4CCC(N5CCCCC5)CC4)cc13)-c1cc3c(c(=O)n1C2)COC(=O)C3(O)CC` (centres unmarked) [irinotecan alkane sulfonate n=12] yielded a Solubility in data set [1] (setting [3]) of 154.5 µg/mL.

In data set [1] (setting [3]), `CCCCCCCCCCCCCCS(=O)(=O)O.CCc1c2c(nc3ccc(OC(=O)N4CCC(N5CCCCC5)CC4)cc13)-c1cc3c(c(=O)n1C2)COC(=O)C3(O)CC` (centres unmarked) [irinotecan alkane sulfonate n=14] returned a Solubility of 70.64 µg/mL.

The compound `CC1c2cccc(O)c2C(O)=C2C(=O)C3(O)C(O)=C(C(N)=O)C(=O)C(N(C)C)C3C(O)C21.CCCCCCCCCCCCCCCCCCOS(=O)(=O)O` (centres unmarked) [doxycycline CnH2n+1OSO3^− n=18] displayed a Solubility in data set [1] (setting [6]) of 5.23 µg/mL.

In data set [1] (setting [4]), `CCCCCCCCCCOS(=O)(=O)O.CCCCCCCCCCOS(=O)(=O)O.O=C1c2c(O)ccc(O)c2C(=O)c2c(NCCNCCO)ccc(NCCNCCO)c21` [mitoxantrone CnH2n+1OSO3^− n=10] came in with a Solubility of 175.8 µg/mL.

As to `CCCCCCCCCCS(=O)(=O)O.CCCCCCCCCCS(=O)(=O)O.O=C1c2c(O)ccc(O)c2C(=O)c2c(NCCNCCO)ccc(NCCNCCO)c21` [mitoxantrone CnH2n+1SO3^− n=10], in data set [1] (setting [4]), the Solubility was 294.9 µg/mL.

The compound `CCCCCCCCCCCCCCS(=O)(=O)O.CCCCCCCCCCCCCCS(=O)(=O)O.O=C1c2c(O)ccc(O)c2C(=O)c2c(NCCNCCO)ccc(NCCNCCO)c21` [mitoxantrone CnH2n+1SO3^− n=14] returned a Solubility in data set [1] (setting [4]) of 2.03 µg/mL.

With `CCCCCCCCCCCCCCCCS(=O)(=O)O.CCc1c2c(nc3ccc(OC(=O)N4CCC(N5CCCCC5)CC4)cc13)-c1cc3c(c(=O)n1C2)COC(=O)C3(O)CC` (centres unmarked) [irinotecan alkane sulfonate n=16], the Solubility in data set [1] (setting [3]) was determined as 14.76 µg/mL.

Turning to `CCCCCCCCCCCCCCCCCCS(=O)(=O)O.COc1cccc2c1C(=O)c1c(O)c3c(c(O)c1C2=O)CC(O)(C(=O)CO)CC3OC1CC(N)C(O)C(C)O1` (centres unmarked) [doxorubicin CnH2n+1SO3^− n=18], the Solubility in data set [1] (setting [5]) is 2.79 µg/mL.

Compound `CC1c2cccc(O)c2C(O)=C2C(=O)C3(O)C(O)=C(C(N)=O)C(=O)C(N(C)C)C3C(O)C21.CCCCCCCCCCCCCCCCCCS(=O)(=O)O` (centres unmarked) [doxycycline CnH2n+1SO3^− n=18] showed a Solubility in data set [1] (setting [6]) of 1.81 µg/mL.
